Reference: PMC13114161 (Antibiotics, 2026)
Like-named read-outs stand apart in the source and are kept apart here. Peptide text beside a SMILES is read from it. * marks the point of attachment. βNA = c1ccc2cc(N*)ccc2c1

Tests used:
Type in all cases: cell-based, Pseudomonas aeruginosa
P. aeruginosa ATCC 27853 = assay: MIC and levofloxacin potentiation (broth microdilution); details: for LVX MIC (+EPI): levofloxacin MIC with EPI at […]
Experimental: Once synthesized, the three fluorinated EPI analogs (TXA11114, TXA11164 and TXA12027) were first assayed for their antibacterial activities against P. aeruginosa ATCC 27853. They had MICs of 100, >200 and 100 µg/mL, respectively (Table 1). […] Particularly, the inactivity of TXA11164 was surprising as the pKa values of both the amines are similar to that in TXA11114.
(§1) MIC assays for potentiation of antimicrobial activity against P. aeruginosa were performed as described previously.

[1] = tested on: P. aeruginosa ATCC 27853 ompH mutants EPIR32, EPIR36, EPIR38; assay: microbe, parasite or virus in culture
Experimental: as §1

P. aeruginosa = assay: MIC potentiation of antimicrobial agents by EPIs; details: for Fold difference of antibiotic MIC + TXA01182 / MIC of antibiotic + TXA01182: TXA01182 at […]; for Fold difference of antibiotic MIC + TXA09155 / MIC of antibiotic + TXA09155: TXA09155 at […]; for Fold difference of antibiotic MIC + TXA11114 / MIC of antibiotic + TXA11114: TXA11114 at […];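 on Fold difference of antibiotic MIC + TXA01182: TXA01182 tested at 6.25 µg/mL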;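 on Fold difference of antibiotic MIC + TXA09155: TXA09155 tested at 6.25 µg/mL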; on Fold difference of antibiotic MIC + TXA11114: TXA11114 at 6.25 µg/mL;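 on MIC of antibiotic + TXA01182: TXA01182 tested at 6.25 µg/mL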;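 on MIC of antibiotic + TXA09155: TXA09155 tested at 6.25 µg/mL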; on MIC of antibiotic + TXA11114: TXA11114 at 6.25 µg/mL
Experimental: In contrast, the activities of gentamicin and imipenem were unchanged in the presence of TXA11114 under the conditions tested. Although gentamicin can be transported by the MexXY efflux system, the absence of potentiation in this assay is not sufficient to draw conclusions regarding MexXY inhibition or overall efflux specificity.
as §1

[2] = tested on: multidrug-resistant P. aeruginosa clinical isolates from the CDC-FDA; assay: Levofloxacin MIC potentiation, CDC-FDA isolates; details: for Levofloxacin MIC fold difference, +EPI / Levofloxacin MIC, +EPI: EPI […] (TXA11114, TXA09155) or 50 μg/mL (MC-04,124, PAβN); for Share of CDC isolates with levofloxacin MIC reduced ≥8-fold (potentiated): TXA11114 […], PAβN and MC-04,124 50 µg/mL
Experimental: In a comparative study, the levofloxacin-potentiating activity of TXA11114 was evaluated alongside the well-characterized EPIs PAβN and MC-04,124 using P. aeruginosa clinical isolates obtained from the CDC and FDA Antimicrobial Resistance Isolate Bank and the Walter Reed Army Institute of Research (WRAIR). […] While PAβN has been widely studied in laboratory strains, its activity against the CDC/FDA P. aeruginosa panel has been reported only sparingly, limiting direct cross-study comparisons.
as §1

[3] = Pseudomonas aeruginosa, ATCC27853, ATCC 27853 parent strain (Table S1), read-out: MIC
[4] = Pseudomonas aeruginosa, ATCC27853, EPIR32
[5] = Pseudomonas aeruginosa, ATCC27853, EPIR36
[6] = Pseudomonas aeruginosa, ATCC27853, EPIR38
[7] = ATCC 27853 parent strain (Table S1)
[8] = Pseudomonas aeruginosa, ATCC27853, EPI alone, ATCC 27853, read-out: EPI MIC

NCC[C@H](O)C(=O)N[C@@H]1C[C@H](N)[C@@H](O[C@H]2O[C@H](CN)[C@@H](O)[C@H](O)[C@H]2O)[C@H](O)[C@H]1O[C@H]1O[C@H](CO)[C@@H](O)[C@H](N)[C@H]1O [AMK, amikacin]
MIC (P. aeruginosa ATCC 27853; [3]): 8 µg/mL
MIC [1, 4]: 2 µg/mL
MIC [1, 5]: 1 µg/mL
MIC [1, 6]: 4 µg/mL

CC[C@H]1OC(=O)[C@H](C)[C@@H](O[C@H]2C[C@@](C)(OC)[C@@H](O)[C@H](C)O2)[C@H](C)[C@@H](O[C@@H]2O[C@H](C)C[C@H](N(C)C)[C@H]2O)[C@](C)(O)C[C@@H](C)CN(C)[C@H](C)[C@@H](O)[C@]1(C)O [AZM, azithromycin]
MIC (P. aeruginosa ATCC 27853; [7]): 64 µg/mL
MIC [1, 4]: 32 µg/mL
MIC [1, 5]: 16 µg/mL
MIC [1, 6]: 64 µg/mL

C[C@H]1[C@H](NC(=O)/C(=N\OC(C)(C)C(=O)O)c2csc(N)n2)C(=O)N1S(=O)(=O)O [Aztreonam]
Fold difference of antibiotic MIC + TXA01182 (P. aeruginosa): 4 fold
MIC of antibiotic + TXA01182 (P. aeruginosa): 2 µg/mL
Fold difference of antibiotic MIC + TXA09155 (P. aeruginosa): 4 fold
MIC of antibiotic + TXA09155 (P. aeruginosa): 2 µg/mL
Fold difference of antibiotic MIC + TXA11114 (P. aeruginosa): 2 fold

CO/N=C(\C(=O)N[C@@H]1C(=O)N2C(C(=O)[O-])=C(C[n+]3cccc4c3CCC4)CS[C@H]12)c1csc(N)n1 [Cefpirome]
Fold difference of antibiotic MIC + TXA01182 (P. aeruginosa): 2 fold
Fold difference of antibiotic MIC + TXA09155 (P. aeruginosa): 8 fold
MIC of antibiotic + TXA09155 (P. aeruginosa): 1 µg/mL
Fold difference of antibiotic MIC + TXA11114 (P. aeruginosa): 4 fold
MIC of antibiotic + TXA11114 (P. aeruginosa): 2 µg/mL

CC(C)(O/N=C(\C(=O)N[C@@H]1C(=O)N2C(C(=O)[O-])=C(C[n+]3ccccc3)CS[C@H]12)c1csc(N)n1)C(=O)O [Ceftazidime, ceftazidime]
MIC (P. aeruginosa ATCC 27853; [7]): 2 µg/mL
MIC [1, 4]: 0.25 µg/mL
MIC [1, 6]: 2 µg/mL
MIC of antibiotic + TXA01182 (P. aeruginosa): 1 µg/mL
MIC of antibiotic + TXA11114 (P. aeruginosa): 0.5 µg/mL

Nc1nc(/C(=N/O)C(=O)N[C@@H]2C(=O)N3C(C(=O)O)=C(/C=C4\CCN([C@@H]5CCNC5)C4=O)CS[C@H]23)ns1 [Ceftobiprole]
Fold difference of antibiotic MIC + TXA01182 (P. aeruginosa): 1 fold
MIC of antibiotic + TXA01182 (P. aeruginosa): 8 µg/mL
Fold difference of antibiotic MIC + TXA09155 (P. aeruginosa): 8 fold
MIC of antibiotic + TXA09155 (P. aeruginosa): 1 µg/mL
Fold difference of antibiotic MIC + TXA11114 (P. aeruginosa): 4 fold
MIC of antibiotic + TXA11114 (P. aeruginosa): 2 µg/mL

C[C@H]1c2cccc(O)c2C(=O)C2=C(O)[C@]3(O)C(=O)C(C(N)=O)=C(O)[C@@H](N(C)C)[C@@H]3[C@@H](O)[C@@H]21 [Doxycycline, doxycycline]
MIC (P. aeruginosa ATCC 27853; [3]): 32 µg/mL
MIC of antibiotic + TXA01182 (P. aeruginosa): 2 µg/mL
MIC of antibiotic + TXA09155 (P. aeruginosa): 1 µg/mL
MIC of antibiotic + TXA11114 (P. aeruginosa): 4 µg/mL

CNC(C)C1CCC(N)C(OC2C(N)CC(N)C(OC3OCC(C)(O)C(NC)C3O)C2O)O1 (centres unmarked) [Gentamicin]
Fold difference of antibiotic MIC + TXA01182 (P. aeruginosa): 1 fold
MIC of antibiotic + TXA01182 (P. aeruginosa): 2 µg/mL
Fold difference of antibiotic MIC + TXA09155 (P. aeruginosa): 1 fold
MIC of antibiotic + TXA09155 (P. aeruginosa): 2 µg/mL
Fold difference of antibiotic MIC + TXA11114 (P. aeruginosa): 1 fold
MIC of antibiotic + TXA11114 (P. aeruginosa): 2 µg/mL
Fold difference of antibiotic MIC + TXA11114 (P. aeruginosa; listed as gentamicin): unchanged

NCC1CNC(C(=O)NC(CCc2ccccc2)C(=O)Nc2ccc3ncccc3c2)C1 (centres unmarked) [MC-04,124]
Levofloxacin MIC fold difference, +EPI ([2]; AR-0229): 1 fold
Levofloxacin MIC, +EPI ([2]; AR-0229): 64 µg/mL
Levofloxacin MIC fold difference, +EPI ([2]; AR-0232): 1 fold
Levofloxacin MIC, +EPI ([2]; AR-0232): 8 µg/mL
Levofloxacin MIC fold difference, +EPI ([2]; AR-0233): 1 fold
Levofloxacin MIC, +EPI ([2]; AR-0233): 4 µg/mL
Levofloxacin MIC fold difference, +EPI ([2]; AR-0234): 1 fold
Levofloxacin MIC, +EPI ([2]; AR-0234): 8 µg/mL
Levofloxacin MIC fold difference, +EPI ([2]; AR-0239): 1 fold
Levofloxacin MIC, +EPI ([2]; AR-0239): 64 µg/mL
Levofloxacin MIC fold difference, +EPI ([2]; AR-0242): 2 fold
Levofloxacin MIC, +EPI ([2]; AR-0242): 4 µg/mL
Levofloxacin MIC fold difference, +EPI ([2]; AR-0244): 1 fold
Levofloxacin MIC fold difference, +EPI ([2]; AR-0246): 1 fold
Levofloxacin MIC, +EPI ([2]; AR-0246): 64 µg/mL
Levofloxacin MIC fold difference, +EPI ([2]; AR-0248): 1 fold
Levofloxacin MIC, +EPI ([2]; AR-0248): 16 µg/mL
Levofloxacin MIC fold difference, +EPI ([2]; AR-0249): 1 fold
Levofloxacin MIC, +EPI ([2]; AR-0249): 64 µg/mL
Levofloxacin MIC fold difference, +EPI ([2]; AR-0252): 1 fold
Levofloxacin MIC, +EPI ([2]; AR-0252): 32 µg/mL
Levofloxacin MIC fold difference, +EPI ([2]; AR-0253): 1 fold
Levofloxacin MIC, +EPI ([2]; AR-0253): 2 µg/mL
Levofloxacin MIC fold difference, +EPI ([2]; AR-0264): 1 fold
Levofloxacin MIC, +EPI ([2]; AR-0264): 64 µg/mL
Share of CDC isolates with levofloxacin MIC reduced ≥8-fold (potentiated) [2]: minimal MIC shifts

C[C@@H](O)[C@H]1C(=O)N2C(C(=O)O)=C(S[C@@H]3CN[C@H](C(=O)N(C)C)C3)[C@H](C)[C@H]12 [MEM, meropenem]
MIC (P. aeruginosa ATCC 27853; [3]): 1 µg/mL
MIC [1, 4]: 0.125 µg/mL
MIC [1, 5]: 0.125 µg/mL
MIC [1, 6]: 0.5 µg/mL

NC(N)=NCCC[C@H](NC(=O)[C@@H](N)Cc1ccccc1)C(=O)Nc1ccc2ccccc2c1 [PAβN, phenylalanine-arginine β-naphthylamide] (H-Phe-Arg-βNA)
Levofloxacin MIC fold difference, +EPI ([2]; AR-0229): 1 fold
Levofloxacin MIC, +EPI ([2]; AR-0229): 64 µg/mL
Levofloxacin MIC fold difference, +EPI ([2]; AR-0232): 16 fold
Levofloxacin MIC, +EPI ([2]; AR-0232): 0.5 µg/mL
Levofloxacin MIC fold difference, +EPI ([2]; AR-0233): 1 fold
Levofloxacin MIC, +EPI ([2]; AR-0233): 4 µg/mL
Levofloxacin MIC fold difference, +EPI ([2]; AR-0234): 16 fold
Levofloxacin MIC, +EPI ([2]; AR-0234): 0.5 µg/mL
Levofloxacin MIC fold difference, +EPI ([2]; AR-0239): 8, (8) fold
Levofloxacin MIC, +EPI ([2]; AR-0239): 8, (8) μg/mL
Levofloxacin MIC, +EPI ([2]; AR-0242): 0.5 µg/mL
Levofloxacin MIC fold difference, +EPI ([2]; AR-0244): 1 fold
Levofloxacin MIC fold difference, +EPI ([2]; AR-0246): 1 fold
Levofloxacin MIC, +EPI ([2]; AR-0246): 64 µg/mL
Levofloxacin MIC fold difference, +EPI ([2]; AR-0248): 1 fold
Levofloxacin MIC, +EPI ([2]; AR-0248): 16 µg/mL
Levofloxacin MIC fold difference, +EPI ([2]; AR-0249): 8, (8) fold
Levofloxacin MIC, +EPI ([2]; AR-0249): 8, (8) μg/mL
Levofloxacin MIC fold difference, +EPI ([2]; AR-0252): 32 fold
Levofloxacin MIC, +EPI ([2]; AR-0252): 1 µg/mL
Levofloxacin MIC fold difference, +EPI ([2]; AR-0253): 64 fold
Levofloxacin MIC, +EPI ([2]; AR-0253): 0.031 µg/mL
Levofloxacin MIC fold difference, +EPI ([2]; AR-0264): 1 fold
Levofloxacin MIC, +EPI ([2]; AR-0264): 64 µg/mL
Share of CDC isolates with levofloxacin MIC reduced ≥8-fold (potentiated) [2]: ~ 54%

CN(C)c1cc(NC(=O)CNC(C)(C)C)c(O)c2c1C[C@H]1C[C@H]3[C@H](N(C)C)C(O)=C(C(N)=O)C(=O)[C@@]3(O)C(O)=C1C2=O [TGC, tigecycline]
MIC (P. aeruginosa ATCC 27853; [7]): 8 µg/mL
MIC [1, 4]: 2 µg/mL
MIC [1, 5]: 2 µg/mL
MIC [1, 6]: 8 µg/mL

NCCC(F)[C@@H](N)CNC(=O)c1cc2ccc(-c3ccc(F)cc3)cc2[nH]1 (stereo partly drawn) [TXA11164, N-((2S)-2,5-diamino-3-fluoropentyl)-6-(4-fluorophenyl)-1H-indole-2-carboxamide]
EPI MIC (P. aeruginosa ATCC 27853; EPI alone, ATCC 27853): >200 µg/mL
Fold MIC reduction [LVX/EPI-LVX] (P. aeruginosa ATCC 27853; EPI at […], ATCC 27853, listed as TXA11167): lacked potentiation activity
MIC (P. aeruginosa ATCC 27853; [8]): > 200 µg/mL
LVX MIC (+EPI) (P. aeruginosa ATCC 27853; ATCC 27853): 1 µg/mL

NCC(F)(F)C[C@@H](N)CNC(=O)c1cc2ccc(-c3ccc(F)cc3)cc2[nH]1 [TXA12027, (R)-N-(2,5-diamino-4,4-difluoropentyl)-6-(4-fluorophenyl)-1H-indole-2-carboxamide]
MIC (P. aeruginosa ATCC 27853; [8]): 100 µg/mL
LVX MIC (+EPI) (P. aeruginosa ATCC 27853; ATCC 27853): 1 µg/mL

Cotrimoxazole
MIC of antibiotic, No EPI (P. aeruginosa): 256 µg/mL
Fold difference of antibiotic MIC + TXA01182 (P. aeruginosa): 16, (>16) fold
MIC of antibiotic + TXA01182 (P. aeruginosa): 16, (>16) μg/mL
Fold difference of antibiotic MIC + TXA09155 (P. aeruginosa): 32 fold
MIC of antibiotic + TXA09155 (P. aeruginosa): 8 µg/mL
Fold difference of antibiotic MIC + TXA11114 (P. aeruginosa): 8 fold
MIC of antibiotic + TXA11114 (P. aeruginosa): 32 µg/mL

polymyxin B [PMB]
MIC (P. aeruginosa ATCC 27853; [7]): 2 µg/mL
MIC ([1]; EPIR32): 4 µg/mL
MIC ([1]; EPIR36): 4 µg/mL
MIC ([1]; EPIR38): 4 µg/mL
